{"source": "EPA's ToxRefDB 2", "key": {"rat [1]": {"test_system": "rat", "settings": "Multigenerational reproductive toxicity study, long evans, Oral, Feed, dose end: 2 generation"}, "rat [2]": {"test_system": "rat", "settings": "Prenatal developmental toxicity study, sprague dawley, Oral, Gavage/Intubation, dose end: 15 GD, group: maternal"}, "dog": {"test_system": "dog", "settings": "Chronic toxicity; beagle; Oral; Capsule; dose end: 52 week; group: systemic; systemic / in life observation / body weight / body weight gain"}, "rat [3]": {"test_system": "rat", "settings": "Multigenerational reproductive toxicity study, wistar, Oral, Feed, dose end: 2 generation"}, "rat [4]": {"test_system": "rat", "settings": "Multigenerational reproductive toxicity study, wistar, Oral, Feed, dose end: 2 generation", "remark": "listed apart in the source"}, "rat [5]": {"test_system": "rat", "settings": "Subchronic oral toxicity in rodents, fischer, Dermal, Topical, dose end: 14 week, group: systemic"}, "mouse [6]": {"test_system": "mouse", "settings": "Subchronic oral toxicity in rodents, b6c3f1, Dermal, Topical, dose end: 14 week, group: systemic"}, "rat [7]": {"test_system": "rat", "settings": "Combined chronic toxicity/carcinogenicity, fischer, Dermal, Topical, dose end: 2 year, group: systemic"}, "mouse [8]": {"test_system": "mouse", "settings": "Carcinogenicity; b6c3f1; Dermal; Topical; dose end: 2 year; group: systemic; systemic / pathology microscopic / skin / hyperplasia"}, "[9]": {"settings": "group: offspring, systemic / in life observation / body weight / offspring (pup) weight + developmental / offspring survival late / viability index / …"}, "[10]": {"settings": "group: parental, systemic / in life observation / body weight / body weight + systemic / in life observation / body weight / body weight gain"}, "[11]": {"settings": "systemic / in life observation / body weight / body weight gain + systemic / in life observation / food consumption / food consumption + …"}, "[12]": {"settings": "group: offspring, systemic / in life observation / body weight / offspring (pup) weight"}, "[13]": {"settings": "group: offspring, systemic / in life observation / body weight / offspring (pup) weight + developmental / offspring survival late / lactation index / …"}, "[14]": {"settings": "group: parental, systemic / in life observation / body weight / body weight + systemic / in life observation / body weight / body weight gain + systemic / …"}, "[15]": {"settings": "group: reproductive, reproductive / offspring survival early / litter size / litter size"}, "[16]": {"settings": "group: offspring, systemic / in life observation / clinical signs / body cold to touch + systemic / in life observation / clinical signs / emaciation + …"}, "[17]": {"settings": "systemic / in life observation / clinical signs / skin discoloration + systemic / organ weight / liver / absolute + systemic / organ weight…"}, "[18]": {"settings": "systemic / pathology microscopic / skin / hyperplasia"}}, "data": [{"smiles": "Cc1ccc(N(SC(F)(Cl)Cl)S(=O)(=O)N(C)C)cc1", "note": "[Tolylfluanid]", "values": [{"measurement": "LOAEL", "setting": "rat [1]; group: offspring, systemic / in life observation / body weight / offspring (pup) weight + developmental / offspring survival late / [other] / [other]", "value": 375, "unit": "mg/kg/day"}, {"measurement": "LEL", "setting": "rat [1]; group: offspring, systemic / in life observation / body weight / offspring (pup) weight + developmental / offspring survival late / [other] / [other] + …", "value": 375, "unit": "mg/kg/day"}, {"measurement": "NEL", "setting": "rat [1]; [9]", "value": 75, "unit": "mg/kg/day"}, {"measurement": "NOAEL", "setting": "rat [1]; [9]", "value": 75, "unit": "mg/kg/day"}, {"measurement": "LEL", "setting": "rat [1]; [10]", "value": 375, "unit": "mg/kg/day"}, {"measurement": "LOAEL", "setting": "rat [1]; [10]", "value": 375, "unit": "mg/kg/day"}, {"measurement": "NEL", "setting": "rat [1]; [10]", "value": 75, "unit": "mg/kg/day"}, {"measurement": "NOAEL", "setting": "rat [1]; [10]", "value": 75, "unit": "mg/kg/day"}, {"measurement": "LOAEL", "setting": "rat [2]; systemic / in life observation / body weight / body weight gain + systemic / in life observation / food consumption / food consumption", "value": 1000, "unit": "mg/kg/day"}, {"measurement": "LEL", "setting": "rat [2]; [11]", "value": 1000, "unit": "mg/kg/day"}, {"measurement": "NEL", "setting": "rat [2]; [11]", "value": 300, "unit": "mg/kg/day"}, {"measurement": "NOAEL", "setting": "rat [2]; [11]", "value": 300, "unit": "mg/kg/day"}, {"measurement": "LEL", "setting": "dog", "value": 62.5, "unit": "mg/kg/day"}, {"measurement": "LOAEL", "setting": "dog", "value": 62.5, "unit": "mg/kg/day"}, {"measurement": "LEL", "setting": "rat [3]; [12]", "value": 83.4, "unit": "mg/kg/day"}, {"measurement": "LOAEL", "setting": "rat [3]; [12]", "value": 83.4, "unit": "mg/kg/day"}, {"measurement": "NEL", "setting": "rat [3]; [13]", "value": 20.1, "unit": "mg/kg/day"}, {"measurement": "NOAEL", "setting": "rat [3]; [13]", "value": 20.1, "unit": "mg/kg/day"}, {"measurement": "LEL", "setting": "rat [3]; [10]", "value": 83.4, "unit": "mg/kg/day"}, {"measurement": "LOAEL", "setting": "rat [3]; [10]", "value": 83.4, "unit": "mg/kg/day"}, {"measurement": "NEL", "setting": "rat [3]; [14]", "value": 20.1, "unit": "mg/kg/day"}, {"measurement": "NOAEL", "setting": "rat [3]; [14]", "value": 20.1, "unit": "mg/kg/day"}, {"measurement": "LEL", "setting": "rat [3]; [15]", "value": 336, "unit": "mg/kg/day"}, {"measurement": "LOAEL", "setting": "rat [3]; [15]", "value": "> 336", "unit": "mg/kg/day"}, {"measurement": "NEL", "setting": "rat [3]; [15]", "value": 83.4, "unit": "mg/kg/day"}, {"measurement": "NOAEL", "setting": "rat [3]; [15]", "value": "≥ 336", "unit": "mg/kg/day"}, {"measurement": "LEL", "setting": "rat [4]; [16]", "value": 57.5, "unit": "mg/kg/day"}, {"measurement": "LOAEL", "setting": "rat [4]; [16]", "value": 57.5, "unit": "mg/kg/day"}, {"measurement": "NEL", "setting": "rat [4]; [16]", "value": 7.9, "unit": "mg/kg/day"}, {"measurement": "NOAEL", "setting": "rat [4]; [16]", "value": 7.9, "unit": "mg/kg/day"}, {"measurement": "LEL", "setting": "rat [4]; [14]", "value": 75.2, "unit": "mg/kg/day"}, {"measurement": "LOAEL", "setting": "rat [4]; [14]", "value": 75.2, "unit": "mg/kg/day"}, {"measurement": "NEL", "setting": "rat [4]; [14]", "value": 9.5, "unit": "mg/kg/day"}, {"measurement": "NOAEL", "setting": "rat [4]; [14]", "value": 9.5, "unit": "mg/kg/day"}, {"measurement": "LEL", "setting": "rat [4]; [15]", "value": 70.4, "unit": "mg/kg/day"}, {"measurement": "LOAEL", "setting": "rat [4]; [15]", "value": 70.4, "unit": "mg/kg/day"}, {"measurement": "NEL", "setting": "rat [4]; [15]", "value": 9.1, "unit": "mg/kg/day"}, {"measurement": "NOAEL", "setting": "rat [4]; [15]", "value": 9.1, "unit": "mg/kg/day"}]}, {"smiles": "Cc1ccc(S(=O)(=O)[O-])cc1C.[Na+]", "note": "[Sodium xylenesulfonate]", "values": [{"measurement": "NEL", "setting": "rat [5]; systemic / in life observation / clinical signs / skin discoloration", "value": 800, "unit": "mg/kg/day"}, {"measurement": "LOAEL", "setting": "rat [5]; [17]", "value": "> 500", "unit": "mg/kg/day"}, {"measurement": "NOAEL", "setting": "rat [5]; [17]", "value": "≥ 500", "unit": "mg/kg/day"}, {"measurement": "LEL", "setting": "mouse [6]; [18]", "value": 170, "unit": "mg/kg/day"}, {"measurement": "LOAEL", "setting": "mouse [6]; [18]", "value": 1300, "unit": "mg/kg/day"}, {"measurement": "NEL", "setting": "mouse [6]; [18]", "value": 60, "unit": "mg/kg/day"}, {"measurement": "NOAEL", "setting": "mouse [6]; systemic / pathology microscopic / skin / hyperplasia + systemic / in life observation / body weight / body weight gain", "value": 440, "unit": "mg/kg/day"}, {"measurement": "LEL", "setting": "rat [7]; [18]", "value": 60, "unit": "mg/kg/day"}, {"measurement": "LOAEL", "setting": "rat [7]; [18]", "value": 120, "unit": "mg/kg/day"}, {"measurement": "NEL", "setting": "rat [7]; [18]", "value": "< 60", "unit": "mg/kg/day"}, {"measurement": "NOAEL", "setting": "rat [7]; systemic / pathology microscopic / skin / hyperplasia + systemic / in life observation / clinical signs / [other]", "value": 60, "unit": "mg/kg/day"}, {"measurement": "LEL", "setting": "mouse [8]", "value": 364, "unit": "mg/kg/day"}, {"measurement": "LOAEL", "setting": "mouse [8]", "value": 364, "unit": "mg/kg/day"}, {"measurement": "NEL", "setting": "mouse [8]", "value": 182, "unit": "mg/kg/day"}, {"measurement": "NOAEL", "setting": "mouse [8]", "value": 182, "unit": "mg/kg/day"}]}]}
